The record followed here is BindingDB's records for doi:10.1021/jm011020u (Instituto De Quimica Medica (Csic), 2002).

The structures appear in SMILES notation.

In test [1] the target is T1, Glycogen synthase kinase-3 beta [7-25] (Oryctolagus cuniculus, UniProt G1T8E2).
T1 construct: 7-25
Kind of test: GSK-3 Inhibition Assay. Conditions: 37 °C.
Description: 32P incorporation was measured with a scintillation counter. The GSK-3 beta activity was expressed in picomoles of phosphate incorporated in GS-1 per 20 min or in percentage of maximal activity.

Test [2] concerns the target Protein kinase C beta type (Rattus norvegicus, UniProt P68403). Nature of the test: PKC Inhibition Assay. Conditions: pH 7.5; 37 °C. Here is the method: Kinase activities were assayed in buffers containing substrate, enzyme, and inhibitor at 37 °C in the presence of 10 uM ATP/ [gamma-32P] ATP. 32P incorporation was measured with a scintillation counter. The IC50 is the inhibitor concentration at which a 50% of enzyme inhibition occurs.

Test [3] addresses cAMP-dependent protein kinase catalytic subunit alpha (Bos taurus, UniProt P00517). Nature of the test: Kinase Inhibition Assay. The settings on record: pH 7.5; 37 °C.

Protein kinase C beta type, sequence (P68403 whole entry): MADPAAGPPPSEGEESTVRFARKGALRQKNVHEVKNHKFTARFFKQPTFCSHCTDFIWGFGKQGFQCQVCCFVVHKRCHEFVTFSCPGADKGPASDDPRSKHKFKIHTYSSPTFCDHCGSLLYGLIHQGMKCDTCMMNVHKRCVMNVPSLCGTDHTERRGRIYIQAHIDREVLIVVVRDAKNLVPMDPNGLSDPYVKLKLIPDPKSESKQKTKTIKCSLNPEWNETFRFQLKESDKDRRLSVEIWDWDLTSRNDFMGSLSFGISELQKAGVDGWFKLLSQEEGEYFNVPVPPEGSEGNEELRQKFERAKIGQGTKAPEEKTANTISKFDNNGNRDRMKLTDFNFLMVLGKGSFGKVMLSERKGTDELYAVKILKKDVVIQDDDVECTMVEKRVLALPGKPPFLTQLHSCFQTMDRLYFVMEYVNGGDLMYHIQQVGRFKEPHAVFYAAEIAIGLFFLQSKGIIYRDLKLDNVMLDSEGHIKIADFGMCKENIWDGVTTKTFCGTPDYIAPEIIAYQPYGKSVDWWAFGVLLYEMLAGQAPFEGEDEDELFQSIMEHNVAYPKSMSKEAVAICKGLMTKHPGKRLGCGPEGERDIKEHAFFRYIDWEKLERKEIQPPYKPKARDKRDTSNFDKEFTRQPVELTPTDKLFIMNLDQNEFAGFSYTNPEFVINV

The term IC50 denotes the concentration that inhibits the measured activity by half. Compound `CCn1sc(=O)n(Cc2ccccc2)c1=O` displayed an IC50 in test [1] (pH 7.5) of 7 µM. This counts as single-digit micromolar.
Same read-out and setting: as for `O=c1sn(Cc2ccccc2)c(=O)n1Cc1ccccc1` [2,4-Dibenzyl-1,2,4-thiadiazolidine-3,5-dione], the figure is 10 µM.
For `O=c1sn(Cc2ccccc2)c(=S)n1Cc1ccccc1` [2,4-Dibenzyl-5-oxo-1,2,4-thiadiazolidine-3-thione], in test [1], the IC50 is 10 µM.
As to `CCn1sc(=O)n(CC)c1=O` [2,4-Diethyl-1,2,4-thiadiazolidine-3,5-dione], half-maximal inhibition in test [1] (pH 7.5) (IC50) was put at 25 µM.
Regarding `CCn1sc(=O)n(CC)c1=S` [2,4-diethyl-3-thioxo-1,2,4-thiadiazolidin-5-one], inhibition in test [1] was half-maximal at 20 µM (IC50). This lies in the double-digit micromolar range.
As to `O=c1sn(-c2ccccc2)c(=S)n1-c1ccccc1` [2,4-diphenyl-5-oxo-1,2,4-thiadiazolidine-3-thione], the IC50 in test [1] came out at 8 µM.
As to `CCn1c(=O)sn(C2CCCCC2)c1=O` [2-Cyclohexyl-4-ethyl-1,2,4-thiadiazolidine-3,5-dione], the half-inhibitory concentration (IC50) in test [1] (pH 7.5) was 10 µM.
Compound `CCn1sc(=N)n(-c2ccccc2)c1=O` [2-Ethyl-3-oxo-4-phenyl-1,2,4-thiadiazolidin-5-imine] showed a concentration for half-maximal inhibition (IC50) in test [1] of 65 µM.
On the same count and under the same terms, as for `Cn1sc(=O)n(-c2cccc3ccccc23)c1=O` [2-methyl-4-(1-naphthyl)-1,2,4-thiadiazolidine-3,5-dione], the figure is 3 µM; as for `Cn1sc(=O)n(-c2ccc(C(F)(F)F)cc2)c1=O` [2-methyl-4-[4-(trifluoromethyl)phenyl]-1,2,4-thiadiazolidine-3,5-dione], 6 µM.
For `Cn1sc(=O)n(-c2ccccc2)c1=O` [2-methyl-4-phenyl-1,2,4-thiadiazolidine-3,5-dione], the 50% inhibitory concentration (IC50) in test [1] (pH 7.5) stood at 2 µM.
In turn, `Cn1sc(=O)n(-c2ccccc2Br)c1=O` [4-(2-Bromophenyl)-2-methyl-1,2,4-thiadiazolidine-3,5-dione] came in with an IC50 in test [1] (pH 7.5) of 6 µM.
On to `Cn1sc(=O)n(-c2cccc(Br)c2)c1=O` [4-(3-Bromophenyl)-2-methyl-1,2,4-thiadiazolidine-3,5-dione], for which the IC50 in test [1] (pH 7.5) was 4 µM.
Same read-out and setting: as for `Cn1sc(=O)n(-c2ccc(Br)cc2)c1=O` [4-(4-Bromophenyl)-2-methyl-1,2,4-thiadiazolidine-3,5-dione], the figure is 3 µM.
In the case of `Cn1sc(=O)n(-c2ccc(Cl)cc2)c1=O` [4-(4-Chlorophenyl)-2-methyl-1,2,4-thiadiazolidine-3,5-dione], the IC50 in test [1] came out at 4 µM.
Regarding `Cn1sc(=O)n(-c2ccc(F)cc2)c1=O` [4-(4-Fluorophenyl)-2-methyl-1,2,4-thiadiazolidine-3,5-dione], the half-inhibitory concentration (IC50) in test [1] was found to be 4 µM.
On the same count and under the same terms, under `Cc1ccc(-n2c(=O)sn(C)c2=O)cc1` [4-(4-Methylphenyl)-2-methyl-1,2,4-thiadiazolidine-3,5-dione] stands 5 µM.
On the same count and under the same terms, under `CCn1sc(=O)n(Cc2ccccc2)c1=S` [4-Benzyl-2-ethyl-5-oxo-1,2,4-thiadiazolidine-3-thione] stands 6 µM.
On to `Cn1sc(=O)n(Cc2ccccc2)c1=O` [4-Benzyl-2-methyl-1,2,4-thiadiazolidine-3,5-dione], for which the IC50 in test [2] and in test [3] was > 100 µM in each case.
On to `Cn1sc(=O)n(C2CCCCC2)c1=O` [4-Cyclohexyl-2-methyl-1,2,4-thiadiazolidine-3,5-dione], for which the half-inhibitory concentration (IC50) in test [1] (pH 7.5) was > 100 µM.
Still for that read-out and setting: as for `CCn1c(=O)sn(C)c1=O` [4-Ethyl-2-methyl-1,2,4-thiadiazolidine-3,5-dione], the figure is 5 µM; as for `CCCn1sc(=O)n(CC)c1=O` [4-Ethyl-2-propyl-1,2,4-thiadiazolidine-3,5-dione], 10 µM.
`CCn1c(=O)sn(C(C)C)c1=O` [4-ethyl-2-(propan-2-yl)-1,2,4-thiadiazolidine-3,5-dione] came in with an IC50 in test [1] (pH 7.5) of 35 µM. Compared with the last compound, the IC50 is about 3.5-fold higher.
In test [1], `CCn1c(=S)n(C)s/c1=N\c1cccnc1` [(5Z)-4-ethyl-2-methyl-5-(pyridin-3-ylimino)-1,2,4-thiadiazolidine-3-thione] came in with an IC50 of 10 µM.
The same measure, in the same setting: as for `CCOC(=O)/N=c1\sn(C(=O)OCC)c(=S)n1-c1ccccc1` [ethyl (5Z)-5-[(ethoxycarbonyl)imino]-4-phenyl-3-sulfanylidene-1,2,4-thiadiazolidine-2-carboxylate], the figure is 100 µM; as for `CCNC(=O)/N=c1\sn(CC)c(=O)n1-c1ccccc1` [ethyl-(2-ethyl-3-oxo-4-phenyl-1,2,4-thiadiazolidin-5-ylidene)urea], 75 µM.
